The target in assay [1] is acetylpolyamine amidohydrolase (APAH) (Mycoplana ramosa, UniProt Q48935). The assay is described as follows: Fluor-de-Lys fluorescence deacetylase assay. In kind it is biochemical.
The target in assay [2] is T1, histone deacetylase 8 (HDAC8) (Homo sapiens, UniProt Q9BY41).
T1 sequence (Q9BY41 1-377): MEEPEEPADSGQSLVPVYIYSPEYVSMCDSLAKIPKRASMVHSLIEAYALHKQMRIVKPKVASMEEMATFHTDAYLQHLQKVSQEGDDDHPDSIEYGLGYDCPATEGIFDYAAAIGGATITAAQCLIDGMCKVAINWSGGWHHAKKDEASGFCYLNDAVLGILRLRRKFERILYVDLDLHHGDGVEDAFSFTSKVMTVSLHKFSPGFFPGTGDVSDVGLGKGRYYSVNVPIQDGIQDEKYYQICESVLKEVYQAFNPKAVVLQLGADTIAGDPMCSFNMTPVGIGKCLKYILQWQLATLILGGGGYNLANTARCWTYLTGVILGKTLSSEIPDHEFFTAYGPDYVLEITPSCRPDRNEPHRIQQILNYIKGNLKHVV
The assay can be described thus: Fluor-de-Lys fluorescence deacetylase assay. In kind it is biochemical.

The structures appear in SMILES notation.

Sequence of acetylpolyamine amidohydrolase (APAH) (Q48935 whole entry): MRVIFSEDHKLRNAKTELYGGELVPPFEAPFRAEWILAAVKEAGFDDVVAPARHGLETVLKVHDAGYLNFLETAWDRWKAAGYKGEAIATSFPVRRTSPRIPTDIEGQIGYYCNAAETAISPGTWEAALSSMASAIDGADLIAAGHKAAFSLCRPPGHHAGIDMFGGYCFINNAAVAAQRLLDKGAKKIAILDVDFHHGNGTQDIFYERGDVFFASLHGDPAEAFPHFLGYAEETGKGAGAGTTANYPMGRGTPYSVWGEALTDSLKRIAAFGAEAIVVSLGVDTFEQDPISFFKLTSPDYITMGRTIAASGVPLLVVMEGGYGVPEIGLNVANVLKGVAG

A word on the IC50: it is the point on the concentration scale where inhibition reaches its midpoint. Turning to `N[C@@H](CCCCC(=O)C(F)(F)F)C(=O)O` [compound 10, (S)-2-amino-8,8,8-trifluoro-7-oxo-octanoic acid], the IC50 in assay [1] was 110 ± 30 µM; in assay [2] it was 1.5 ± 0.2 µM.

The values above are taken from article PMC3171563 (2011).
